Experimental data: patent publication US4194006A, “Therapeutic application of acetyl-d,l-carnitine and other acyl derivatives of d,l-carnitine” (priority 1977, dated 1980)
Where two headings read alike, the source gives them in different places.

Legend:
[1] = in vivo; settings: mouse, in vivo, iv
Description: The tolerance of acetyl-d,l-carnitine and of the other aforementioned acyl derivatives of the formula (I), as well as their salts were investigated by comparing the LD50 obtained by administering the compounds intravenously in mice with the LD50 obtained under the same experimental conditions by intravenous injection of d,l-carnitine.

[2] = tested on: isolated rabbit hearts; assay: cardiokinetic effect on isolated heart (Langendorff): contractile force after anoxia, positive inotropic effect; settings: 10 minutes from interruption of anoxic period
In short: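 Rabbit hearts were perfused Langendorff-style with oxygenated Ringer at 38.2 °C. Anoxia was applied until contractile force dropped by 80%, then the hearts were reoxygenated with or without compound. Contractile force was expressed as a percentage 10 min after the anoxic period ended.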

[3] = tested on: isolated rabbit hearts; assay: coronary vasodilator effect: coronary flow, isolated heart (Langendorff)
In short: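 Langendorff-perfused isolated rabbit hearts in oxygenated Ringer at 38.2° C; anoxia imposed until contractile force fell by 80%, then reoxygenated with or without test compound. Coronary flow, isometric contraction and ECG recorded by polygraph.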

[4] = tested on: isolated rat atrium; assay: antiarrhythmic effect, isolated rat atrium method of M. Libonati and G. Segre; settings: Rattus norvegicus; for inhibition at 0.1 µg/mL / activation at 0.1 µg/mL: 1·10^-4 g/lt; for inhibition at 0.1 µg/mL / inhibition at 0.01 µg/mL / inhibition at 0.001 µg/mL: decrease; for activation at 0.1 µg/mL / activation at 0.01 µg/mL / activation at 0.001 µg/mL: increase; for inhibition at 0.01 µg/mL / activation at 0.01 µg/mL: 1·10^-5 g/lt; for inhibition at 0.001 µg/mL / activation at 0.001 µg/mL: 1·10^-6 g/lt
[5] = tested on: female rats; assay: antifatigue effect: rota-rod; format: in vivo, rat; settings: Rattus norvegicus, ip, 0.25 h, read-out: percentage of animals staying on the rota-rod more than 180 seconds; for responders at 300 mg/kg: 300 mg/kg i.p.; for responders at 400 mg/kg: 400 mg/kg i.p.; for responders at 600 mg/kg: 600 mg/kg i.p.
In short: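 Female rats dosed intraperitoneally in saline, with controls given saline alone. Every 15 min after treatment animals were placed on a 6 cm rod rotating at 16 r.p.m. Value is the percentage of animals staying on the rod for more than 180 s, per session.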

[6] = read-out: Mean percent variation versus controls: excitability (-%)
[7] = read-out: Mean percent variation versus controls: frequency max (-%)
[8] = read-out: Mean percent variation versus controls: refractory period (+%)
[9] = read-out: Mean percent variation versus controls: rheobase (+%)
[10] = session 6 (every 15 minutes), * p < 0.05

Structure (SMILES)	Contractile force, Mean ± S.E. ([2]; 1·10^-5 g/lt) [%]	Contractile force, Mean ± S.E. ([2]; 1·10^-6 g/lt) [%]	Contractile force, Mean ± S.E. ([2]; 5·10^-6 g/lt) [%]	Coronary flow, Mean ± S.E. ([3]; 1·10^-5 g/lt) [%]	Coronary flow, Mean ± S.E. ([3]; 1·10^-6 g/lt) [%]	Coronary flow, Mean ± S.E. ([3]; 5·10^-6 g/lt) [%]	inhibition at 0.1 µg/mL [4, 6] [%]	inhibition at 0.1 µg/mL [4, 7] [%]	activation at 0.1 µg/mL [4, 8] [%]	activation at 0.1 µg/mL [4, 9] [%]	inhibition at 0.01 µg/mL [4, 6] [%]	inhibition at 0.01 µg/mL [4, 7] [%]	activation at 0.01 µg/mL [4, 8] [%]	activation at 0.01 µg/mL [4, 9] [%]	inhibition at 0.001 µg/mL [4, 6] [%]	inhibition at 0.001 µg/mL [4, 7] [%]	activation at 0.001 µg/mL [4, 8] [%]	activation at 0.001 µg/mL [4, 9] [%]	responders at 300 mg/kg ([5]; session 1 (every 15 minutes)) [%]	responders at 300 mg/kg ([5]; session 2 (every 15 minutes)) [%]	also measured
CCCCCCCCCCCCCCCCCC(=O)OC(CC(=O)[O-])C[N+](C)(C)C (racemic) [stearoyl-d,l-carnitine]	32.8 ± 3.01	27.1 ± 3.18	27.5 ± 4.09	81.05 ± 6.27	80.21 ± 8.78	77.30 ± 11.8	12.3	3.5	24.6	2.08	0	1.92	16.2	3.84	0	0	15.6	1.85	0	0	LD50 [1]: ~745 mg/kg; responders at 300 mg/kg ([5]; session 3 (every 15 minutes)): 0%; responders at 300 mg/kg ([5]; session 4 (every 15 minutes)): 10%; responders at 300 mg/kg ([5]; session 5 (every 15 minutes)): 10%; responders at 300 mg/kg ([5]; session 6 (every 15 minutes)): 10%; responders at 400 mg/kg ([5]; session 1 (every 15 minutes)): 0%; responders at 400 mg/kg ([5]; session 2 (every 15 minutes)): 0%; responders at 400 mg/kg ([5]; session 3 (every 15 minutes)): 0%; responders at 400 mg/kg ([5]; session 4 (every 15 minutes)): 10%; responders at 400 mg/kg ([5]; session 5 (every 15 minutes)): 20%; responders at 400 mg/kg [5, 10]: 20%; responders at 600 mg/kg ([5]; session 1 (every 15 minutes)): 0%; responders at 600 mg/kg ([5]; session 2 (every 15 minutes)): 10%; responders at 600 mg/kg ([5]; session 3 (every 15 minutes)): 10%; responders at 600 mg/kg ([5]; session 4 (every 15 minutes)): 20%; responders at 600 mg/kg ([5]; session 5 (every 15 minutes)): 20%; responders at 600 mg/kg [5, 10]: 20%
CCCCCC(=O)OC(CC(=O)[O-])C[N+](C)(C)C (racemic) [hexanoyl-d,l-carnitine]	38.0 ± 4.80	24.2 ± 3.88	28.8 ± 3.16	84.08 ± 5.14	76.25 ± 4.75	75.28 ± 8.36	26.3	25.1	21.7	21.7	18.2	12.3	12.7	10.1	12.4	8.71	9.04	6.2	0	0	responders at 300 mg/kg ([5]; session 3 (every 15 minutes)): 0%; responders at 300 mg/kg ([5]; session 4 (every 15 minutes)): 0%; responders at 300 mg/kg ([5]; session 5 (every 15 minutes)): 10%; responders at 300 mg/kg ([5]; session 6 (every 15 minutes)): 10%; responders at 400 mg/kg ([5]; session 1 (every 15 minutes)): 0%; responders at 400 mg/kg ([5]; session 2 (every 15 minutes)): 0%; responders at 400 mg/kg ([5]; session 3 (every 15 minutes)): 0%; responders at 400 mg/kg ([5]; session 4 (every 15 minutes)): 0%; responders at 400 mg/kg ([5]; session 5 (every 15 minutes)): 10%; responders at 400 mg/kg [5, 10]: 10%; responders at 600 mg/kg ([5]; session 1 (every 15 minutes)): 0%; responders at 600 mg/kg ([5]; session 2 (every 15 minutes)): 0%; responders at 600 mg/kg ([5]; session 3 (every 15 minutes)): 10%; responders at 600 mg/kg ([5]; session 4 (every 15 minutes)): 10%; responders at 600 mg/kg ([5]; session 5 (every 15 minutes)): 20%; responders at 600 mg/kg [5, 10]: 30%
CCCCCCCCCC(=O)OC(CC(=O)[O-])C[N+](C)(C)C (racemic) [decanoyl-d,l-carnitine]	36.3 ± 6.53	26.9 ± 5.02	29.1 ± 3.12	83.21 ± 5.70	76.30 ± 9.42	72.60 ± 12.4	25.2	24.8	21.6	21.2	17.2	12	10.3	9.54	0	8.66	9.14	3.12	0	0	responders at 300 mg/kg ([5]; session 3 (every 15 minutes)): 0%; responders at 300 mg/kg ([5]; session 4 (every 15 minutes)): 10%; responders at 300 mg/kg ([5]; session 5 (every 15 minutes)): 10%; responders at 300 mg/kg ([5]; session 6 (every 15 minutes)): 10%; responders at 400 mg/kg ([5]; session 1 (every 15 minutes)): 0%; responders at 400 mg/kg ([5]; session 2 (every 15 minutes)): 0%; responders at 400 mg/kg ([5]; session 3 (every 15 minutes)): 0%; responders at 400 mg/kg ([5]; session 4 (every 15 minutes)): 10%; responders at 400 mg/kg ([5]; session 5 (every 15 minutes)): 10%; responders at 400 mg/kg [5, 10]: 10%; responders at 600 mg/kg ([5]; session 1 (every 15 minutes)): 0%; responders at 600 mg/kg ([5]; session 2 (every 15 minutes)): 0%; responders at 600 mg/kg ([5]; session 3 (every 15 minutes)): 0%; responders at 600 mg/kg ([5]; session 4 (every 15 minutes)): 10%; responders at 600 mg/kg ([5]; session 5 (every 15 minutes)): 10%; responders at 600 mg/kg [5, 10]: 20%
